The values that follow are results of earlier work, collected in US7402577B2, “Androstane 17-beta-carboxamides as androgen receptor modulators” (priority 2001, dated 2008).

One series concerns fractures. The settings on record: postmenopausal osteoporotic women, median of 22 months of treatment.
In a further series the test system is spinal BMD. The settings on record: after 7 years of treatment.

In the case of “hPTH(1-34): human parathyroid hormone 1-34 fragment (SVSEIQLMHNLGKHLNSMERVEWLRKKLQDVHNF; Parathyroid hormone; UniProt P01270 32-65, looked up, fragment)”, in the series on fractures, the “reduction in nonvertebral fractures” value is 54% and the “reduction in spine fractures” value is no less than 65%. For the molecule `NCCCC(O)(P(=O)([O-])O)P(=O)(O)O.O.O.O.[Na+]` [alendronate, (4-amino-1-hydroxybutylidene)-bis-phosphonate monosodium trihydrate], in the series on spinal BMD, the “increase in spinal BMD” value is no more than 11%.
